# The source made the active and inactive calls. No rule for the calls is given here.
# Test system: CCRIS mutagenicity, Ames/micronucleus/aberration tests
# Assay: CCRIS mutagenicity studies
# [1] = Test System: AMES SALMONELLA TYPHIMURIUM, Strain/Indicator: TA98, Metabolic Activation: NONE, Method: PREINCUBATION
# [2] = Test System: AMES SALMONELLA TYPHIMURIUM, Strain/Indicator: TA100, Metabolic Activation: NONE, Method: PREINCUBATION
# [3] = Test System: AMES SALMONELLA TYPHIMURIUM, Strain/Indicator: TA100, Metabolic Activation: NONE, Method: STANDARD PLATE
# [4] = Test System: MOUSE LYMPHOMA, Strain/Indicator: L5178Y (TK+/TK-), Metabolic Activation: NONE, Method: SUSPENSION/PLATE
# [5] = Test System: AMES SALMONELLA TYPHIMURIUM, Strain/Indicator: TA98, Metabolic Activation: RAT, LIVER, S-9, AROCLOR 1254, Method: STANDARD PLATE
# [6] = Test System: AMES SALMONELLA TYPHIMURIUM, Strain/Indicator: TA98, Metabolic Activation: NONE, Method: STANDARD PLATE
# [7] = Test System: AMES SALMONELLA TYPHIMURIUM, Strain/Indicator: TA100, Metabolic Activation: RAT, LIVER, S-9, AROCLOR 1254, Method: STANDARD PLATE
smiles,measurement,setting,value
O[C@@H]1[C@H]2O[C@H]2c2c(ccc3c2ccc2ccccc23)[C@H]1O,mutagenic call,"Test System: AMES SALMONELLA TYPHIMURIUM, Strain/Indicator: TA97, Metabolic Activation: NONE, Method: PREINCUBATION",active; positive
same,mutagenic call,[1],active; positive
same,mutagenic call,[2],active; positive
same,mutagenic call,"Test System: AMES SALMONELLA TYPHIMURIUM, Strain/Indicator: TA104, Metabolic Activation: NONE, Method: PREINCUBATION",active; positive
same,mutagenic call,"Test System: CHINESE HAMSTER V-79, Strain/Indicator: V-79/6-THIOGUANINE, Metabolic Activation: NONE, Method: STANDARD PLATE",active; positive
O=C/C(Br)=C(/Br)C(=O)O,mutagenic call,"End Point: In vitro micronucleus, Test System: Human lymphocytes, Metabolic Activation: None",inactive; negative
same,mutagenic call,[3],active; positive
CSCCC=O,mutagenic call,[1],inactive; negative
same,mutagenic call,"Test System: AMES SALMONELLA TYPHIMURIUM, Strain/Indicator: TA98, Metabolic Activation: RAT LIVER S-9, AROCLOR 1254, Method: PREINCUBATION",inactive; negative
same,mutagenic call,[2],inactive; negative
same,mutagenic call,"Test System: AMES SALMONELLA TYPHIMURIUM, Strain/Indicator: TA100, Metabolic Activation: RAT LIVER S-9, AROCLOR 1254, Method: PREINCUBATION",inactive; negative
same,mutagenic call,"Test System: AMES SALMONELLA TYPHIMURIUM, Strain/Indicator: TA1535, Metabolic Activation: NONE, Method: PREINCUBATION",inactive; negative
same,mutagenic call,"Test System: AMES SALMONELLA TYPHIMURIUM, Strain/Indicator: TA1535, Metabolic Activation: RAT LIVER S-9, AROCLOR 1254, Method: PREINCUBATION",inactive; negative
same,mutagenic call,"Test System: AMES SALMONELLA TYPHIMURIUM, Strain/Indicator: TA1537, Metabolic Activation: NONE, Method: PREINCUBATION",inactive; negative
same,mutagenic call,"Test System: AMES SALMONELLA TYPHIMURIUM, Strain/Indicator: TA1537, Metabolic Activation: RAT LIVER S-9, AROCLOR 1254, Method: PREINCUBATION",inactive; negative
same,mutagenic call,"Test System: AMES SALMONELLA TYPHIMURIUM, Strain/Indicator: TA1538, Metabolic Activation: NONE, Method: PREINCUBATION",inactive; negative
same,mutagenic call,"Test System: AMES SALMONELLA TYPHIMURIUM, Strain/Indicator: TA1538, Metabolic Activation: RAT LIVER S-9, AROCLOR 1254, Method: PREINCUBATION",inactive; negative
same,mutagenic call,[4],active; positive
same,mutagenic call,"Test System: MOUSE LYMPHOMA, Strain/Indicator: L5178Y (TK+/TK-), Metabolic Activation: RAT LIVER S-9, AROCLOR 1254, Method: SUSPENSION/PLATE",active; positive
COCC12OOC1(C)c1ccccc1O2 (stereo not given),mutagenic call,[2],active; positive
CCOc1ccc(N)cc1,mutagenic call,"Test System: AMES SALMONELLA TYPHIMURIUM, Strain/Indicator: TA98, Metabolic Activation: HAMSTER, LIVER, S-9, AROCLOR 1254 (30%), Method: PREINCUBATION",inactive; negative
same,mutagenic call,[1],inactive; negative
same,mutagenic call,"Test System: AMES SALMONELLA TYPHIMURIUM, Strain/Indicator: TA98, Metabolic Activation: RAT, LIVER, S-9, AROCLOR 1254 (30%), Method: PREINCUBATION",inactive; negative
same,mutagenic call,"Test System: AMES SALMONELLA TYPHIMURIUM, Strain/Indicator: TA100, Metabolic Activation: HAMSTER, LIVER, S-9, AROCLOR 1254 (30%), Method: PREINCUBATION",active; positive
same,mutagenic call,"Test System: AMES SALMONELLA TYPHIMURIUM, Strain/Indicator: TA100, Metabolic Activation: HAMSTER, LIVER, S-9, KANECHLOR 400, Method: PREINCUBATION",active; positive
same,mutagenic call,[2],inactive; negative
same,mutagenic call,"Test System: AMES SALMONELLA TYPHIMURIUM, Strain/Indicator: TA100, Metabolic Activation: RAT, LIVER, S-9, AROCLOR 1254 (30%), Method: PREINCUBATION",active; positive
same,mutagenic call,"Test System: UDS RODENT HEPATOCYTES, Strain/Indicator: THY INCORP (NON-S-PHASE), Metabolic Activation: NONE, Method: AUTORADIOGRAPHY",inactive; negative
CN(CC(O)CO)N=O (stereo not given),mutagenic call,"Test System: AMES SALMONELLA TYPHIMURIUM, Strain/Indicator: TA100, Metabolic Activation: HAMSTER, LIVER, S-9, 3-METHYLCHOLANTHRENE, Method: PREINCUBATION",active; positive
same,mutagenic call,"Test System: AMES SALMONELLA TYPHIMURIUM, Strain/Indicator: TA100, Metabolic Activation: HAMSTER, LIVER, S-9, PHENOBARBITAL, Method: PREINCUBATION",active; positive
same,mutagenic call,"Test System: AMES SALMONELLA TYPHIMURIUM, Strain/Indicator: TA100, Metabolic Activation: HAMSTER, LIVER, S-9, Method: PREINCUBATION",active; positive
same,mutagenic call,"Test System: AMES SALMONELLA TYPHIMURIUM, Strain/Indicator: TA100, Metabolic Activation: MOUSE, LIVER, S-9, 3-METHYLCHOLANTHRENE, Method: PREINCUBATION",active; positive
same,mutagenic call,"Test System: AMES SALMONELLA TYPHIMURIUM, Strain/Indicator: TA100, Metabolic Activation: MOUSE, LIVER, S-9, PHENOBARBITAL, Method: PREINCUBATION",active; positive
same,mutagenic call,"Test System: AMES SALMONELLA TYPHIMURIUM, Strain/Indicator: TA100, Metabolic Activation: MOUSE, LIVER, S-9, Method: PREINCUBATION",active; positive
same,mutagenic call,[2],inactive; negative
same,mutagenic call,"Test System: AMES SALMONELLA TYPHIMURIUM, Strain/Indicator: TA100, Method: PREINCUBATION",active; positive
OC1C=Cc2c(cc3ccc4cccc5ccc2c3c45)C1 (stereo not given),mutagenic call,[5],active; positive
CCCCC/C=C/C=C/C=O,mutagenic call,"Test System: AMES SALMONELLA TYPHIMURIUM, Strain/Indicator: TA98, Metabolic Activation: HAMSTER, LIVER, S-9, AROCLOR 1254, Method: STANDARD PLATE",inactive; negative
same,mutagenic call,[6],inactive; negative
same,mutagenic call,[5],inactive; negative
same,mutagenic call,"Test System: AMES SALMONELLA TYPHIMURIUM, Strain/Indicator: TA100, Metabolic Activation: HAMSTER, LIVER, S-9, AROCLOR 1254, Method: STANDARD PLATE",inactive; negative
same,mutagenic call,[3],inactive; negative
same,mutagenic call,[7],inactive; negative
same,mutagenic call,"Test System: AMES SALMONELLA TYPHIMURIUM, Strain/Indicator: TA1535, Metabolic Activation: HAMSTER, LIVER, S-9, AROCLOR 1254, Method: STANDARD PLATE",inactive; negative
same,mutagenic call,"Test System: AMES SALMONELLA TYPHIMURIUM, Strain/Indicator: TA1535, Metabolic Activation: NONE, Method: STANDARD PLATE",inactive; negative
same,mutagenic call,"Test System: AMES SALMONELLA TYPHIMURIUM, Strain/Indicator: TA1535, Metabolic Activation: RAT, LIVER, S-9, AROCLOR 1254, Method: STANDARD PLATE",inactive; negative
same,mutagenic call,"Test System: AMES SALMONELLA TYPHIMURIUM, Strain/Indicator: TA1537, Metabolic Activation: HAMSTER, LIVER, S-9, AROCLOR 1254, Method: STANDARD PLATE",inactive; negative
same,mutagenic call,"Test System: AMES SALMONELLA TYPHIMURIUM, Strain/Indicator: TA1537, Metabolic Activation: NONE, Method: STANDARD PLATE",inactive; negative
same,mutagenic call,"Test System: AMES SALMONELLA TYPHIMURIUM, Strain/Indicator: TA1537, Metabolic Activation: RAT, LIVER, S-9, AROCLOR 1254, Method: STANDARD PLATE",inactive; negative
same,mutagenic call,"Test System: AMES SALMONELLA TYPHIMURIUM, Strain/Indicator: TA1538, Metabolic Activation: HAMSTER, LIVER, S-9, AROCLOR 1254, Method: STANDARD PLATE",inactive; negative
same,mutagenic call,"Test System: AMES SALMONELLA TYPHIMURIUM, Strain/Indicator: TA1538, Metabolic Activation: NONE, Method: STANDARD PLATE",inactive; negative
same,mutagenic call,"Test System: AMES SALMONELLA TYPHIMURIUM, Strain/Indicator: TA1538, Metabolic Activation: RAT, LIVER, S-9, AROCLOR 1254, Method: STANDARD PLATE",inactive; negative
same,mutagenic call,[4],inactive; negative. reevaluation of results: negative
same,mutagenic call,"Test System: MOUSE LYMPHOMA, Strain/Indicator: L5178Y (TK+/TK-), Metabolic Activation: RAT, LIVER, S-9, AROCLOR 1254, Method: SUSPENSION/PLATE",inactive; negative. reevaluation of results: negative
O=[N+]([O-])c1ccc2ccc3c4ccccc4nc4ccc1c2c43,mutagenic call,"Test System: AMES SALMONELLA TYPHIMURIUM, Strain/Indicator: TA98(1,8-DNP6), Metabolic Activation: NONE",active; positive
same,mutagenic call,"Test System: AMES SALMONELLA TYPHIMURIUM, Strain/Indicator: TA98(NR), Metabolic Activation: NONE",active; positive
same,mutagenic call,"Test System: AMES SALMONELLA TYPHIMURIUM, Strain/Indicator: TA98, Metabolic Activation: NONE",active; positive
O=C(/C=C/c1ccc(O)cc1)c1ccccc1,mutagenic call,[6],inactive; negative
same,mutagenic call,[5],inactive; negative
same,mutagenic call,[3],inactive; negative
same,mutagenic call,[7],inactive; negative
CC(=O)Nc1ccc(C(=O)/C=C/c2ccccc2)cc1,mutagenic call,[6],inactive; negative
same,mutagenic call,[5],inactive; negative
same,mutagenic call,[3],inactive; negative
same,mutagenic call,[7],inactive; negative

# From PubChem BioAssay AID1259407 (Chemical Carcinogenesis Research Information System (CCRIS), 2018)
